Patent US20130059850A1, “AZA-INDOLE DERIVATIVES USEFUL AS MODULATORS OF FAAH” (MERCK SHARP & DOHME CORP., priority 2010, published 2013)

What was measured:
[1] = biological target: T1, human FAAH (Fatty Acid Amide Hydrolase) (Homo sapiens, UniProt O00519); test: FAAH whole cell assay on CHO cells expressing human FAAH (human WC), AAMCA fluorescent substrate; assay type: cell-based; details: human FAAH_CHO whole cell
T1 construct: The full length FAAH was subcloned into the mammalian expression vector, pcDEF.neo, using XbaI and EcoRI restriction sites; expressed in transfected cells
T1 sequence (O00519 1-579): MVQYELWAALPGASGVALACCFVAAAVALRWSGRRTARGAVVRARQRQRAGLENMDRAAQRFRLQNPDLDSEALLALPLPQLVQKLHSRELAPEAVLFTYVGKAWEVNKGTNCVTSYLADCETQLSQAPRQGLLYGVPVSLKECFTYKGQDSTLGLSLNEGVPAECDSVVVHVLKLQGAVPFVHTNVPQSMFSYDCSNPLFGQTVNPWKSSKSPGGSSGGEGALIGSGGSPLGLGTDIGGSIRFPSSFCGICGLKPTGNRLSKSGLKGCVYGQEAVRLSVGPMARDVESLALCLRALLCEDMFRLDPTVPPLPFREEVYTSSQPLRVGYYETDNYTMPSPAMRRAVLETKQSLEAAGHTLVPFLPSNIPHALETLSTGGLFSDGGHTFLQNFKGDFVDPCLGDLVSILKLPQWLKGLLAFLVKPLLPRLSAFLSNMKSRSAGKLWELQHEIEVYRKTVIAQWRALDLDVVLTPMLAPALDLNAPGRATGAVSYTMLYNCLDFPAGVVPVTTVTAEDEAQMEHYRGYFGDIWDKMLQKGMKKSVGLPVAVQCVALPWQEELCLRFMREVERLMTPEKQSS
Method in brief: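 CHO cells stably expressing full-length human FAAH, harvested with enzyme-free dissociation and resuspended at 4×10^4 cells/assay (96-well) or 1×10^4 (384-well) in 50 mM phosphate pH 8.0, 1 mM EDTA, 200 mM KCl, 0.2% glycerol, 0.1% BSA.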

[2] = biological target: T1, human FAAH (Fatty Acid Amide Hydrolase); test: FAAH enzyme assay on CHO cell lysate expressing human FAAH (human LY), AAMCA fluorescent substrate; assay type: biochemical; details: human FAAH_CHO cell lysate
Method in brief: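 CHO cell lysate expressing full-length human FAAH, preincubated with compound 15 min at 22-25° C. in pH 8.0 phosphate buffer with 200 mM KCl and 0.1% fatty-acid-free BSA. 1 μM AAMCA final, 1-3 h at room temperature; 7-amino-4-methylcoumarin release read by fluorescence (Ex 360, Em 460 nm).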

Compound	IC50 [1]	IC50 [2]
O=C(O)C1CC=C(c2[nH]c3ncccc3c2Sc2ccc(Cl)cc2)CC1 (stereo not drawn) [Example B47]	573 nM	252 nM
CCNC(=O)C1CC=C(c2[nH]c3ncccc3c2Sc2ccc(Cl)cc2)CC1 (stereo not drawn) [Example B48]	29.1 nM	9.5 nM
O=C(NCCO)C1CC=C(c2[nH]c3ncccc3c2Sc2ccc(Cl)cc2)CC1 (stereo not drawn) [Example B49]	66.3 nM	23.8 nM
OCC1CC=C(c2[nH]c3ncccc3c2Sc2ccc(Cl)cc2)CC1 (stereo not drawn) [Example B50, (4-{3-[(4-chlorophenyl)sulfanyl]-1H-pyrrolo[2,3-b]pyridin-2-yl}cyclohex-3-en-1-yl)methanol]	8.04 nM	3.06 nM
OC[C@H]1CC[C@@H](c2[nH]c3ncccc3c2Sc2ccc(Cl)cc2)CC1 [Example B51]	73.9 nM	14.6 nM
O=C(N[C@H]1CC[C@H](O)CC1)c1[nH]c2ncccc2c1Sc1ccc(Cl)cc1 [Example C4, 3-[(4-chlorophenyl)sulfanyl]-N-(trans-4-hydroxycyclohexyl)-1H-pyrrolo[2,3-b]pyridine-2-carboxamide]	48 nM	7.64 nM
COc1ccc(NC(=O)c2[nH]c3ncccc3c2Sc2ccc(Cl)cc2)cn1 [Example C8]	272 nM	42.9 nM
CC1(C)CCC(NC(=O)c2[nH]c3ncccc3c2Sc2ccc(Cl)cc2)CC1 [Example C9]	773 nM	251 nM
O=C(NCC(O)C1CCCCC1)c1[nH]c2ncccc2c1Sc1ccc(Cl)cc1 (stereo not drawn) [Example C10]	1990 nM	660 nM
O=C(NCc1ccc(O)c(O)c1)c1[nH]c2ncccc2c1Sc1ccc(Cl)cc1 [Example C11]	107 nM	15.2 nM
O=C(c1[nH]c2ncccc2c1Sc1ccc(Cl)cc1)N1CCc2ccncc21 [Example C12]	2680 nM	2080 nM
CC(C1COc2ccccc2O1)N(C)C(=O)c1[nH]c2ncccc2c1Sc1ccc(Cl)cc1 (stereo not drawn) [Example C13]	2630 nM	256 nM
O=C(Nc1ccc2c(c1)OCCO2)c1[nH]c2ncccc2c1Sc1ccc(Cl)cc1 [Example C14]	28.5 nM	7.43 nM
O=C(Nc1ccc2c(c1)OCO2)c1[nH]c2ncccc2c1Sc1ccc(Cl)cc1 [Example C15]	9.92 nM	5.9 nM
O=C(Nc1ccc2[nH]ncc2c1)c1[nH]c2ncccc2c1Sc1ccc(Cl)cc1 [Example C16]	18.1 nM	9.79 nM
O=C(NC1CCCCC1)c1[nH]c2ncccc2c1Sc1ccc(Cl)cc1 [Example C17]	101 nM	30.4 nM
O[C@H]1CC[C@H](c2[nH]c3ncccc3c2Sc2ccc(Cl)cc2)CC1 [Example D5, trans-4-{3-[(4-chlorophenyl)sulfanyl]-1H-pyrrolo[2,3-b]pyridin-2-yl}cyclohexanol]	9.16 nM	3.83 nM
O[C@H]1CC[C@H](c2[nH]c3ncccc3c2Sc2ccc(Cl)cn2)CC1 [Example D6, trans-4-{3-[(5-chloropyridin-2-yl)sulfanyl]-1H-pyrrolo[2,3-b]pyridin-2-yl}cyclohexanol]	32.7 nM	13.4 nM
O=C1CCC(c2[nH]c3ncccc3c2Sc2ccc(Cl)cc2)CC1 [Example D7, 4-{3-[(4-chlorophenyl)sulfanyl]-1H-pyrrolo[2,3-b]pyridin-2-yl}cyclohexanone]	22.8 nM	14.2 nM
Cn1cccc2c(Sc3ccc(Cl)cc3)c(-c3ccc4c(c3)OCCO4)nc1-2 [Example E2, 3-[(4-chlorophenyl)sulfanyl]-2-(2,3-dihydro-1,4-benzodioxin-6-yl)-7-methyl-7H-pyrrolo[2,3-b]pyridine]	23.4 nM	9.7 nM
Cn1c(-c2ccc3c(c2)OCCO3)c(Sc2ccc(Cl)cc2)c2cccnc21 [Example E3, 3-[(4-chlorophenyl)sulfanyl]-2-(2,3-dihydro-1,4-benzodioxin-6-yl)-1-methyl-1H-pyrrolo[2,3-b]pyridine]	16.6 nM	6.51 nM
Cn1cccc2c(Sc3ccc(Cl)cc3)c(-c3ccc4[nH]ncc4c3)nc1-2 [Example E4]	12.4 nM	4.22 nM
Cn1cccc2c(Sc3ccc(Cl)cc3)c(C3=CCC(O)CC3)nc1-2 (stereo not drawn) [Example E5]	53.9 nM	8.07 nM
Cn1cccc2c(Sc3ccc(Cl)cc3)c([C@H]3CC[C@H](O)CC3)nc1-2 [Example E7]	18.8 nM	9.92 nM
COc1cc(-c2nc3n(C)cccc-3c2Sc2ccc(Cl)cc2)cnc1OC [Example E8]	72.7 nM	12.4 nM
Cn1cccc2c(Sc3ccc(Cl)cn3)c(-c3ccc4[nH]ncc4c3)nc1-2 [Example E9]	82.5 nM	15.4 nM

Compound	IC50 [1]	IC50 [2]
Cn1cccc2c(Sc3ccc(Cl)cc3)c(-c3ccc(C(O)C(F)(F)F)cc3)nc1-2 (stereo not drawn) [Example E10]	70.6 nM	18.5 nM
Cn1cccc2c(Sc3ccc(Cl)cn3)c(-c3ccc4c(c3)OCO4)nc1-2 [Example E11]	71.6 nM	26.6 nM
OCCn1cccc2c(Sc3ccc(Cl)cc3)c(-c3ccc4c(c3)OCO4)nc1-2 [Example E12]	76.7 nM	28.8 nM
CCn1cccc2c(Sc3ccc(Cl)cc3)c(-c3ccc4c(c3)OCO4)nc1-2 [Example E13]	160 nM	48.9 nM
Cn1cccc2c(Sc3ccc(Cl)cn3)c(-c3ccc(C(O)C(F)(F)F)cc3)nc1-2 (stereo not drawn) [Example E14]	925 nM	116 nM
Cn1cccc2c(Sc3ccc(Cl)cn3)c([C@H]3CC[C@H](O)CC3)nc1-2 [Example E16]	8490 nM	2030 nM
OCCn1cccc2c(Sc3ccc(Cl)cn3)c(-c3ccc4c(c3)OCCO4)nc1-2 [Example E17]	1300 nM	168 nM
Cn1cccc2c(Sc3ccc(Cl)cc3)c(C(=O)Nc3ccc4c(c3)OCCO4)nc1-2 [Example E18]	1340 nM	171 nM
Cn1cccc2c(Sc3ccc(Cl)cn3)c(C3=CCC(O)CC3)nc1-2 (stereo not drawn) [Example E19]	1210 nM	181 nM
OCCn1cccc2c(Sc3ccc(Cl)cn3)c(-c3ccc4c(c3)OCO4)nc1-2 [Example E20]	1040 nM	289 nM
NC(=O)CCn1cccc2c(Sc3ccc(Cl)cc3)c(-c3ccc4c(c3)OCO4)nc1-2 [Example E21]	1390 nM	317 nM
Clc1ccc(Sc2c3cccn(CCn4cccc4)c-3nc2-c2ccc3c(c2)OCO3)cc1 [Example E22]	3220 nM	497 nM
Cn1cccc2c(Sc3ccc(Cl)cn3)c([C@H]3CC[C@@H](O)CC3)nc1-2 [Example E23]	252 nM	148 nM
Cn1c(-c2ccc(C(O)C(F)(F)F)cc2)c(Sc2ccc(Cl)cc2)c2cccnc21 (stereo not drawn) [Example E33]	186 nM	106 nM
Cn1c2ncccc2c(Sc2ccc(Cl)cc2)c1[C@H]1CC[C@H](O)CC1 [Example E34]	9.93 nM	7.08 nM
OCCn1c(-c2ccc3c(c2)OCO3)c(Sc2ccc(Cl)cc2)c2cccnc21 [Example E35]	115 nM	31.7 nM
COc1ccc(Cc2[nH]c3ncccc3c2Sc2ccc(Cl)cc2)cc1 [Example F2, 3-[(4-chlorophenyl)sulfanyl]-2-(4-methoxybenzyl)-1H-pyrrolo[2,3-b]pyridine]	151 nM	52.9 nM
N#Cc1ccccc1-c1[nH]c2ncccc2c1Sc1ccc(Cl)cc1 [Example F8]	69.4 nM	12.2 nM
Clc1ccc(Sc2c(-c3ccccn3)[nH]c3ncccc23)cc1 [Example F9]	1110 nM	339 nM
Clc1ccc(Sc2c(-c3ccc4[nH]ncc4c3)[nH]c3ncccc23)cc1 [Example I3, 5-{3-[(4-chlorophenyl)sulfanyl]-1H-pyrrolo[2,3-b]pyridin-2-yl}-1H-indazole]	10.7 nM	2.15 nM
OC(c1ccccc1)c1[nH]c2ncccc2c1Sc1ccc(Cl)cc1 (stereo not drawn) [Example J4, {3-[(4-chlorophenyl)sulfanyl]-1H-pyrrolo[2,3-b]pyridin-2-yl}(phenyl)methanol]	10000 nM	5870 nM
Clc1ccc(Sc2c(CNCc3ccccc3)[nH]c3ncccc23)cc1 [Example J6, N-benzyl-1-{3-[(4-chlorophenyl)sulfanyl]-1H-pyrrolo[2,3-b]pyridin-2-yl}methanamine]	400 nM	132 nM
Clc1ccc(Sc2c(CNC3CCOCC3)[nH]c3ncccc23)cc1 [Example J7]	1140 nM	260 nM
OC1CCN(Cc2[nH]c3ncccc3c2Sc2ccc(Cl)cc2)CC1 [Example J8]	433 nM	80.4 nM
OC(c1ccc2c(c1)OCO2)c1[nH]c2ncccc2c1Sc1ccc(Cl)cc1 (stereo not drawn) [Example J9]	3330 nM	2600 nM
